# Assays:
# [1] = tested on: T1, purified chitinase from black soybean seeds (acidic chitinase, 20.1 kDa); test: p-nitrophenol release at […] nm, Lineweaver-Burk; type: biochemical, Glycine max; settings: pH 4.0, 37 °C, 0.05 M acetate, 30 min
# T1 construct: native purification from seeds; monomer; smaller than known soybean seed class III (28 kDa) and class I (32 kDa) chitinases; trace basic isoform co-purified
# [2] = tested on: T1, purified chitinase from black soybean seeds (acidic chitinase, 20.1 kDa); test: fluorimetric release of 4-methylumbelliferone, Lineweaver-Burk; type: biochemical, Glycine max; settings: pH 5.0, 40 °C, 0.05 M sodium acetate, 30 min
# Description: fluorimetric release of 4-methylumbelliferone, Lineweaver-Burk on purified chitinase from black soybean seeds (acidic chitinase, 20.1 kDa)
Km [1],Km [2],Compound
245 µM,,CC(=O)N[C@H]1[C@H](Oc2ccc([N+](=O)[O-])cc2)O[C@H](CO)[C@@H](O[C@@H]2O[C@H](CO)[C@@H](O[C@@H]3O[C@H](CO)[C@@H](O[C@@H]4O[C@H](CO)[C@@H](O)[C@H](O)[C@H]4NC(C)=O)[C@H](O)[C@H]3NC(C)=O)[C@H](O)[C@H]2NC(C)=O)[C@@H]1O [pNp-GlcNAc4]
,17.4 µM,CC(=O)N[C@H]1[C@H](Oc2ccc3c(C)cc(=O)oc3c2)O[C@H](CO)[C@@H](O[C@@H]2O[C@H](CO)[C@@H](O[C@@H]3O[C@H](CO)[C@@H](O)[C@H](O)[C@H]3NC(C)=O)[C@H](O)[C@H]2NC(C)=O)[C@@H]1O [4-MU-GlcNAc3]

# — article PMC4249961, “Characterization of an Acidic Chitinase from Seeds of Black Soybean (Glycine max (L) Merr Tainan No. 3)” (PLoS ONE, 2014)
